Results taken from patent publication US10294207B2, “Pyrazole derivatives as TNIK, IKKϵ and TBK1 inhibitor and pharmaceutical composition comprising same” (GREEN CROSS CORPORATION, priority 2015, dated 2019).
Structures can show the parent of a compound that is named as a salt.

Molecular target: T1, TBK1 (Homo sapiens, UniProt Q9UHD2)
T1 construct: purchased Promega V3991
T1 sequence (Q9UHD2 1-729): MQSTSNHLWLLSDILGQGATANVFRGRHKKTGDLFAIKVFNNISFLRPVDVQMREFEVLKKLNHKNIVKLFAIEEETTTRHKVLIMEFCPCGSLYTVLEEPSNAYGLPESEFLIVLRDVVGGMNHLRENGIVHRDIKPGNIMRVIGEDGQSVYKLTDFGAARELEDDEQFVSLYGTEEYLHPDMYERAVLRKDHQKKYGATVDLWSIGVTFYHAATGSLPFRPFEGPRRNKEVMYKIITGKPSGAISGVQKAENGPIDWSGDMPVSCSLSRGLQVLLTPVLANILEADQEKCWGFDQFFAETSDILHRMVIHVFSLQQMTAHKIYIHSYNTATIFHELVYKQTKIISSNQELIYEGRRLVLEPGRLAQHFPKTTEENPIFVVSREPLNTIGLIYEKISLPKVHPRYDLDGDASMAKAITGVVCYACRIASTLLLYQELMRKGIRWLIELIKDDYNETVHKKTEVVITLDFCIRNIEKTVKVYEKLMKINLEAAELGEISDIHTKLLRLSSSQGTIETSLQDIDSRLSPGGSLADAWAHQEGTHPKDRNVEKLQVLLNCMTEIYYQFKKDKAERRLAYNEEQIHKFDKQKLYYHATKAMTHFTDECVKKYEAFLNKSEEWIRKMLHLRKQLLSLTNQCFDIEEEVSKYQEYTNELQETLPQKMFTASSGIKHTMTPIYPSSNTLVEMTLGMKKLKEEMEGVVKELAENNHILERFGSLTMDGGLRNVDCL
Experiment: TBK1 inhibition, ADP-Glo Kinase Assay
Assay type: biochemical
Conditions: luminometer
Procedure: Inhibition activities on TNIK, IKKε and TBK1 were evaluated using the compounds of Examples 1 to 254.
The inhibition activities on TNIK, IKKε and TBK1 were measured by a luminometer, TNIK/IKKε/TBK1 Kinase Enzyme System (Promega, Ca# V4158; Invitrogen, PR8031B, Promega, Ca# V3991) and ADP-Glo Kinase Assay using ADP-Glo™ Kinase Analysis Kit (Promega, Ca# V9101) and a kinase reaction buffer [40 mM Tris(pH 7.5), 20 mM MgCl2, 0.1 mg/mL BSA] in accordance with the manufacturer's protocol.

Row | IC50 | Compound
1 | 0.025 µM | CSc1ccc(C(=O)Nc2n[nH]c3ccc(C(=O)NCc4cccs4)cc23)cc1 [Example 6, 3-(4-(Methylthio)benzamido)-N-(thiophen-2-ylmethyl)-1H-indazole-5-carboxamide]
2 | 0.03 µM | CC(C)(C)c1ccc(C(=O)Nc2n[nH]c3ccc(C(=O)NCc4cccs4)cc23)cc1 [Example 10, 3-(4-tert-Butylbenzamido)-N-(thiophen-2-ylmethyl)-1H-indazole-5-carboxamide]
3 | 0.089 µM | O=C(NCc1cccs1)c1ccc2[nH]nc(NC(=O)c3ccc(F)cc3)c2c1 [Example 36, 3-(4-Fluorobenzamido)-N-(thiophen-2-ylmethyl)-1H-indazole-5-carboxamide]
4 | 0.0054 µM | O=C(NCc1cccs1)c1ccc2[nH]nc(NC(=O)c3ccc(NCCC4CCOCC4)cc3)c2c1 [Example 160, 3-(4-((2-(Tetrahydro-2H-pyran-4-yl)ethyl)amino)benzamido)-N-(thiophen-2-ylmethyl)-1H-indazole-5-carboxamide]
5 | 0.76 µM | CCCCCCNc1ccc(C(=O)Nc2n[nH]c3ccc(C(=O)NCc4cccs4)cc23)cc1 [Example 161, 3-(4-(Hexylamino)benzamido)-N-(thiophen-2-ylmethyl)-1H-indazole-5-carboxamide]
6 | 0.08 µM | O=C(NCc1cccs1)c1ccc2[nH]nc(NC(=O)c3ccc(NC4CCCCC4)cc3)c2c1 [Example 162, 3-(4-(Cyclohexylamino)benzamido)-N-(thiophen-2-ylmethyl)-1H-indazole-5-carboxamide]
7 | 0.036 µM | O=C(NCc1cccs1)c1ccc2[nH]nc(NC(=O)c3ccc(NC4CCCC4)cc3)c2c1 [Example 163, 3-(4-(Cyclopentylamino)benzamido)-N-(thiophen-2-ylmethyl)-1H-indazole-5-carboxamide]
8 | 5.6 µM | O=C(NCc1cccs1)c1ccc2[nH]nc(NC(=O)c3ccc(NC4CCCCCC4)cc3)c2c1 [Example 164, 3-(4-(Cycloheptylamino)benzamido)-N-(thiophen-2-ylmethyl)-1H-indazole-5-carboxamide]
9 | 0.43 µM | O=C(NCc1cccs1)c1ccc2[nH]nc(NC(=O)c3ccc(NC4CCCCCCC4)cc3)c2c1 [Example 165, 3-(4-(Cyclooctylamino)benzamido)-N-(thiophen-2-ylmethyl)-1H-indazole-5-carboxamide]
10 | 0.26 µM | O=C(NCc1cccs1)c1ccc2[nH]nc(NC(=O)c3ccc(NCC4CCCCC4)cc3)c2c1 [Example 166, 3-(4-((Cyclohexylmethyl)amino)benzamido)-N-(thiophen-2-ylmethyl)-1H-indazole-5-carboxamide]
11 | 0.03 µM | O=C(NCc1cccs1)c1ccc2[nH]nc(NC(=O)c3ccc(NCCn4cccc4)cc3)c2c1 [Example 169, 3-(4-((2-(1H-Pyrrol-1-yl)ethyl)amino)benzamido)-N-(thiophen-2-ylmethyl)-1H-indazole-5-carboxamide]
12 | 0.093 µM | O=C(NCc1cccs1)c1ccc2[nH]nc(NC(=O)c3ccc(O)cc3)c2c1 [Example 200, 3-(4-Hydroxybenzamido)-N-(thiophen-2-ylmethyl)-1H-indazole-5-carboxamide]
13 | 0.075 µM | O=C(NCc1cccs1)c1ccc2[nH]nc(NC(=O)c3ccc([N+](=O)[O-])cc3)c2c1 [Example 203, 3-(4-Nitrobenzamido)-N-(thiophen-2-ylmethyl)-1H-indazole-5-carboxamide]
14 | 0.003 µM | Nc1ccc(C(=O)Nc2n[nH]c3ccc(C(=O)NCc4cccs4)cc23)cc1 [Example 205, 3-(4-Aminobenzamido)-N-(thiophen-2-ylmethyl)-1H-indazole-5-carboxamide]
15 | 0.026 µM | O=C(NCc1cccs1)c1ccc2[nH]nc(NC(=O)c3ccc(NC(=O)C4CCC4)cc3)c2c1 [Example 206, 3-(4-(Cyclobutanecarboxamido)benzamido)-N-(thiophen-2-ylmethyl)-1H-indazole-5-carboxamide]
16 | 0.027 µM | O=C1CC(C(=O)Nc2ccc(C(=O)Nc3n[nH]c4ccc(C(=O)NCc5cccs5)cc34)cc2)C1 [Example 208, 3-(4-(3-Oxocyclobutanecarboxamido)benzamido)-N-(thiophen-2-ylmethyl)-1H-indazole-5-carboxamide]
17 | 0.12 µM | CC(C)(C)OC(=O)N1CCC[C@H]1C(=O)Nc1ccc(C(=O)Nc2n[nH]c3ccc(C(=O)NCc4cccs4)cc23)cc1 [Example 210, tert-Butyl (S)-2-((4-((5-((thiophen-2-ylmethyl)carbamoyl)-1H-indazol-3-yl)carbamoyl)phenyl)carbamoyl)pyrrolidine-1-carboxylate]

Second part, the compound before the results:

Row | Compound | IC50
18 | COc1ccc(C(=O)Nc2n[nH]c3ccc(C(=O)N(C)Cc4cccs4)cc23)cc1 [Example 4, 3-(4-Methoxybenzamido)-N-methyl-N-(thiophen-2-ylmethyl)-1H-indazole-5-carboxamide] | 0.83 µM
19 | COc1ccc(C(=O)Nc2n[nH]c3ccc(C(=O)N4CCc5ccsc5C4)cc23)cc1 [Example 5, 4-Methoxy-N-(5-(4,5,6,7-tetrahydrothieno[2,3-c]pyridine-6-carbonyl)-1H-indazol-3-yl)benzamide] | 8.4 µM
20 | COc1ccc(C(=O)Nc2n[nH]c3ccc(NCc4cccs4)cc23)cc1 [Example 11, 4-Methoxy-N-(5-((thiophen-2-ylmethyl)amino)-1H-indazol-3-yl)benzamide] | 0.89 µM
21 | COc1ccc(C(=O)Nc2n[nH]c3ccc(-c4ccc(CN5CCOCC5)s4)cc23)cc1 [Example 12, 4-Methoxy-N-(5-(5-(morpholinomethyl)thiophen-2-yl)-1H-indazol-3-yl)benzamide] | 0.43 µM
22 | O=C(NCc1cccs1)c1ccc2[nH]nc(NC(=O)c3ccccc3)c2c1 [Example 13, 3-Benzamido-N-(thiophen-2-ylmethyl)-1H-indazole-5-carboxamide] | 0.036 µM
23 | CC(NC(=O)c1ccc2[nH]nc(NC(=O)c3ccc(F)cc3)c2c1)c1cccs1 (stereo not shown) [Example 14, 3-(4-Fluorobenzamido)-N-(1-(thiophen-2-yl)ethyl)-1H-indazole-5-carboxamide] | 0.042 µM
24 | CCC(NC(=O)c1ccc2[nH]nc(NC(=O)c3ccc(F)cc3)c2c1)c1cccs1 (stereo not shown) [Example 17, 3-(4-Fluorobenzamido)-N-(1-(thiophen-2-yl)propyl)-1H-indazole-5-carboxamide] | 0.013 µM
25 | O=C(NCc1ccncc1)c1ccc2[nH]nc(NC(=O)c3ccc(F)cc3)c2c1 [Example 29, 3-(4-Fluorobenzamido)-N-(pyridin-4-ylmethyl)-1H-indazole-5-carboxamide] | 0.28 µM
26 | O=C(Nc1n[nH]c2ccc(C(=O)NC(c3cccs3)C3CC3)cc12)c1ccc(F)cc1 (stereo not shown) [Example 30, N-(Cyclopropyl(thiophen-2-yl)methyl)-3-(4-fluorobenzamido)-1H-indazole-5-carboxamide] | 0.036 µM
27 | O=C(Nc1n[nH]c2ccc(CNCc3cccs3)cc12)c1ccc(F)cc1 [Example 31, 4-Fluoro-N-(5-(((thiophen-2-ylmethyl)amino)methyl)-1H-indazol-3-yl)benzamide Hydrochloride] | > 10 µM
28 | O=C(NCc1cccs1)c1ccc2[nH]nc(NS(=O)(=O)c3ccccc3)c2c1 [Example 39, 3-(Phenylsulfonamido)-N-(thiophen-2-ylmethyl)-1H-indazole-5-carboxamide] | > 10 µM
29 | CN(Cc1cccs1)C(=O)c1ccc2[nH]nc(NC(=O)c3ccc(N4CCOCC4)cc3)c2c1 [Example 42, N-Methyl-3-(4-morpholinobenzamido)-N-(thiophen-2-ylmethyl)-1H-indazole-5-carboxamide] | 0.2 µM
30 | O=C(NCc1ccncc1)c1ccc2[nH]nc(NC(=O)c3ccc(N4CCOCC4)cc3)c2c1 [Example 120, 3-(4-Morpholinobenzamido)-N-(pyridin-4-ylmethyl)-1H-indazole-5-carboxamide] | 0.019 µM
31 | O=C(NCc1cccs1)c1ccc2[nH]nc(NC(=O)c3ccc(N4CCOCC4)cc3N3CCOCC3)c2c1 [Example 168, 3-(2,4-Dimorpholinobenzamido)-N-(thiophen-2-ylmethyl)-1H-indazole-5-carboxamide] | 6.6 µM
32 | CN1CCN(c2ccc(C(=O)Nc3n[nH]c4ccc(C(=O)NCc5cccs5)cc34)c(F)c2)CC1 [Example 170, 3-(2-Fluoro-4-(4-methylpiperazin-1-yl)benzamido)-N-(thiophen-2-ylmethyl)-1H-indazole-5-carboxamide] | > 10 µM
33 | O=C(NCc1cccs1)c1ccc2[nH]nc(NC(=O)c3cccc([N+](=O)[O-])c3)c2c1 [Example 204, 3-(3-Nitrobenzamido)-N-(thiophen-2-ylmethyl)-1H-indazole-5-carboxamide] | 0.077 µM
34 | O=C(NCc1cccs1)c1ccc2[nH]nc(NC(=O)c3ccc(NC(=O)C4(C(F)(F)F)CC4)cc3)c2c1 [Example 207, N-(Thiophen-2-ylmethyl)-3-(4-(1-(trifluoromethyl)cyclopropanecarboxamido)benzamido)-1H-indazole-5-carboxamide] | 0.038 µM
